In patent publication US10206937B2, “Boronic acid derivatives and therapeutic uses thereof” (Qpex Biopharma, Inc., priority 2014, dated 2019):

Tested on: strains of Enterobacteriaceae producing various carbapenemases (class A, D and B; 104 strains)
Test: Antibiotics potentiation by Compound 27 (MIC; meropenem, doripenem, ertapenem, cefepime)
Type: cell-based
Settings: + 27 = with Compound 27 at fixed 4 μg/ml

## COc1ccc2c(c1C(=O)O)OB(O)C(Sc1nnc(N)s1)C2 (centres unmarked) [C + 27]
Strain CF1012 Citrobacter freundii (KPC-2)
  MIC: X (MIC of less than 1 μg/mL)
Strain CF1021 Citrobacter freundii (CMY-type; VIM-1)
  MIC: X (MIC of less than 1 μg/mL)
Strain CF1022 Citrobacter freundii (SHV-12(2be), TEM-OSBL(2b); IMP-8)
  MIC: X (MIC of less than 1 μg/mL)
Strain CF1023 Citrobacter freundii (SHV-12(2be), TEM-OSBL(2b); CTX-M-3; CMY-34; NDM-1)
  MIC: X (MIC of less than 1 μg/mL)
Strain CL1080 Enterobacter cloacae (IMP-1)
  MIC: Y (MIC of 1 μg/mL to 10 μg/mL)
Strain EA1019 Enterobacter aerogenes (SHV-5, VIM-1)
  MIC: Y (MIC of 1 μg/mL to 10 μg/mL)
Strain EC1007 Escherichia coli (KPC-3)
  MIC: X (MIC of less than 1 μg/mL)
Strain EC1061 Escherichia coli (NDM-1, CMY-6)
  MIC: X (MIC of less than 1 μg/mL)
Strain EC1062 Escherichia coli (OXA-48, CTX-M-15)
  MIC: X (MIC of less than 1 μg/mL)
Strain EC1064 Escherichia coli (NDM-1, CMY-6, CTX-M-15)
  MIC: Z (MIC of greater than 10 μg/mL)
Strain EC1065 Escherichia coli (IMP-1)
  MIC: X (MIC of less than 1 μg/mL)
Strain EC1068 Escherichia coli (VIM-1)
  MIC: Y (MIC of 1 μg/mL to 10 μg/mL)
Strain EC1069 Escherichia coli (CTX-M-27; NDM-1)
  MIC: X (MIC of less than 1 μg/mL)
Strain EC1070 Escherichia coli (TEM-OSBL(2b); CMY-42; NDM-5)
  MIC: X (MIC of less than 1 μg/mL)
Strain EC1072 Escherichia coli (CTX-M-3; NDM-1)
  MIC: Y (MIC of 1 μg/mL to 10 μg/mL)
Strain ECL1004 Enterobacter cloacae (NMC-A)
  MIC: X (MIC of less than 1 μg/mL)
Strain ECL1026 Enterobacter cloacae (KPC-2, TEM-1)
  MIC: X (MIC of less than 1 μg/mL)
Strain ECL1036 Enterobacter cloacae (KPC-3, TEM-1)
  MIC: X (MIC of less than 1 μg/mL)
Strain ECL1045 Enterobacter cloacae (VIM-1)
  MIC: Y (MIC of 1 μg/mL to 10 μg/mL)
Strain ECL1055 Enterobacter cloacae (KPC-3, TEM)
  MIC: X (MIC of less than 1 μg/mL)
Strain ECL1057 Enterobacter cloacae (NDM-1, TEM-1, CTX-M-15)
  MIC: Z (MIC of greater than 10 μg/mL)
Strain ECL1058 Enterobacter cloacae (KPC-3, SHV-11, TEM-1)
  MIC: X (MIC of less than 1 μg/mL)
Strain ECL1059 Enterobacter cloacae (KPC-3, SHV-12, TEM-1)
  MIC: X (MIC of less than 1 μg/mL)
Strain ECL1061 Enterobacter cloacae (KPC-3, Hyper AmpC expression)
  MIC: Y (MIC of 1 μg/mL to 10 μg/mL)
Strain ECL1082 Enterobacter cloacae (VIM-1)
  MIC: Y (MIC of 1 μg/mL to 10 μg/mL)
Strain ECL1084 Enterobacter cloacae (CTX-M-15; ACT-16; NDM-1)
  MIC: X (MIC of less than 1 μg/mL)
Strain ECL1085 Enterobacter cloacae (SHV-31(2be), TEM-1(2b); CTX-M-15; NDM-1)
  MIC: X (MIC of less than 1 μg/mL)
Strain ECL1086 Enterobacter cloacae (VIM-31, OXA-48(c))
  MIC: Y (MIC of 1 μg/mL to 10 μg/mL)
Strain ECL1087 Enterobacter cloacae (VIM-1)
  MIC: Y (MIC of 1 μg/mL to 10 μg/mL)
Strain ECL1088 Enterobacter cloacae (TEM-1(2b); CTX-M-14; ACT-type; VIM-1)
  MIC: Y (MIC of 1 μg/mL to 10 μg/mL)
Strain ECL1089 Enterobacter cloacae (ACT-type; IMP-1)
  MIC: Z (MIC of greater than 10 μg/mL)
Strain ECL1090 Enterobacter cloacae (TEM-1(2b); CTX-M-22; ACT-type; IMP-8)
  MIC: Y (MIC of 1 μg/mL to 10 μg/mL)
Strain ECL1091 Enterobacter cloacae (VIM-1)
  MIC: Y (MIC of 1 μg/mL to 10 μg/mL)
Strain ECL1092 Enterobacter cloacae (TEM-OSBL(2b); ACT-32; VIM-1)
  MIC: X (MIC of less than 1 μg/mL)
Strain ECL1093 Enterobacter cloacae (TEM-OSBL(2b); ACT-32; VIM-1)
  MIC: X (MIC of less than 1 μg/mL)
Strain ECL1094 Enterobacter cloacae (VIM-1)
  MIC: Y (MIC of 1 μg/mL to 10 μg/mL)
Strain ECL1096 Enterobacter cloacae (CMY-4, VIM-4, OXA-48(c))
  MIC: X (MIC of less than 1 μg/mL)
Strain ECL1097 Enterobacter cloacae (SHV-31(2be), TEM-OSBL(2b); CTX-M-15; ACT-31; NDM-1)
  MIC: X (MIC of less than 1 μg/mL)
Strain ECL1098 Enterobacter cloacae (TEM-OSBL(2b); DHA-1; ACT-16; NDM-1)
  MIC: X (MIC of less than 1 μg/mL)
Strain KP1001 Klebsiella pneumoniae (KPC TEM SHV)
  MIC: Y (MIC of 1 μg/mL to 10 μg/mL)
Strain KP1002 Klebsiella pneumoniae (KPC TEM SHV)
  MIC: X (MIC of less than 1 μg/mL)
Strain KP1003 Klebsiella pneumoniae (KPC TEM SHV)
  MIC: X (MIC of less than 1 μg/mL)
Strain KP1004 Klebsiella pneumoniae (KPC-2, TEM-1, SHV-11)
  MIC: X (MIC of less than 1 μg/mL)
Strain KP1008 Klebsiella pneumoniae (KPC-2)
  MIC: X (MIC of less than 1 μg/mL)
Strain KP1014 Klebsiella pneumoniae (VIM-1, TEM, SHV)
  MIC: X (MIC of less than 1 μg/mL)
Strain KP1054 Klebsiella pneumoniae (VIM-1, SHV-11)
  MIC: X (MIC of less than 1 μg/mL)
Strain KP1059 Klebsiella pneumoniae (VIM-1, SHV-11)
  MIC: Y (MIC of 1 μg/mL to 10 μg/mL)
Strain KP1061 Klebsiella pneumoniae (KPC-3, SHV-11, TEM-1)
  MIC: X (MIC of less than 1 μg/mL)
Strain KP1064 Klebsiella pneumoniae (KPC-2, SHV-11, TEM-1)
  MIC: Y (MIC of 1 μg/mL to 10 μg/mL)
Strain KP1065 Klebsiella pneumoniae (VIM-1, SHV-11)
  MIC: X (MIC of less than 1 μg/mL)
Strain KP1070 Klebsiella pneumoniae (KPC-2, SHV-11, TEM-1)
  MIC: X (MIC of less than 1 μg/mL)
Strain KP1074 Klebsiella pneumoniae (KPC-3, SHV-11, TEM)
  MIC: Z (MIC of greater than 10 μg/mL)
Strain KP1081 Klebsiella pneumoniae (NDM-1, TEM-1, SHV-11, CMY-6, CTX-M-15)
  MIC: Y (MIC of 1 μg/mL to 10 μg/mL)
Strain KP1082 Klebsiella pneumoniae (KPC-2, SHV-1)
  MIC: X (MIC of less than 1 μg/mL)
Strain KP1083 Klebsiella pneumoniae (KPC-3, SHV-1, TEM-1)
  MIC: X (MIC of less than 1 μg/mL)
Strain KP1084 Klebsiella pneumoniae (KPC-3, SHV-11, TEM-1)
  MIC: Y (MIC of 1 μg/mL to 10 μg/mL)
Strain KP1086 Klebsiella pneumoniae (OXA-48, CTX-M-15, TEM, SHV)
  MIC: Z (MIC of greater than 10 μg/mL)
Strain KP1087 Klebsiella pneumoniae (KPC-2, CTX-M-15, SHV-11, TEM-1)
  MIC: Y (MIC of 1 μg/mL to 10 μg/mL)
Strain KP1088 Klebsiella pneumoniae (KPC-3, SHV-11, TEM-1)
  MIC: X (MIC of less than 1 μg/mL)
Strain KP1089 Klebsiella pneumonias (OXA-181, CTX-M-15, TEM, SHV)
  MIC: Y (MIC of 1 μg/mL to 10 μg/mL)
Strain KP1095 Klebsiella pneumoniae (KPC-2 TEM-1 SHV-1)
  MIC: X (MIC of less than 1 μg/mL)
Strain KP1096 Klebsiella pneumoniae (KPC-2 TEM-181 SHV-11)
  MIC: X (MIC of less than 1 μg/mL)
Strain KP1097 Klebsiella pneumonias (IMP-1)
  MIC: X (MIC of less than 1 μg/mL)
Strain KP1098 Klebsiella pneumoniae (IMP-26)
  MIC: Y (MIC of 1 μg/mL to 10 μg/mL)
Strain KP1104 Klebsiella pneumoniae (KPC TEM)
  MIC: X (MIC of less than 1 μg/mL)
Strain KP1105 Klebsiella pneumoniae (KPC TEM SHV)
  MIC: X (MIC of less than 1 μg/mL)
Strain KP1159 Klebsiella pneumoniae (SHV-1(2b); CTX-M-15; IMP-4)
  MIC: X (MIC of less than 1 μg/mL)
Strain KP1160 Klebsiella pneumoniae (SHV-28(2be); CTX-M-15; IMP-26)
  MIC: X (MIC of less than 1 μg/mL)
Strain KP1161 Klebsiella pneumoniae (NDM-1)
  MIC: X (MIC of less than 1 μg/mL)
Strain KP1164 Klebsiella pneumoniae (SHV-12(2be); VIM-1)
  MIC: X (MIC of less than 1 μg/mL)
Strain KP1165 Klebsiella pneumoniae (SHV-11(2b); CTX-M-15; VIM-27)
  MIC: Z (MIC of greater than 10 μg/mL)
Strain KP1166 Klebsiella pneumoniae (SHV-5(2be); VIM-26)
  MIC: Z (MIC of greater than 10 μg/mL)
Strain KP1167 Klebsiella pneumoniae (SHV-12(2be); VIM-1)
  MIC: X (MIC of less than 1 μg/mL)
Strain KP1169 Klebsiella pneumoniae (SHV-11(2b); VIM-1)
  MIC: X (MIC of less than 1 μg/mL)
Strain KP1170 Klebsiella pneumoniae (SHV-11(2b); CTX-M-15; NDM-1)
  MIC: X (MIC of less than 1 μg/mL)
Strain KP1172 Klebsiella pneumoniae (SHV-31(2be); DHA-1; VIM-1)
  MIC: X (MIC of less than 1 μg/mL)
Strain KP1173 Klebsiella pneumoniae (TEM-33(2br); CTX-M-15; IMP-1)
  MIC: X (MIC of less than 1 μg/mL)
Strain KP1174 Klebsiella pneumoniae (CTX-M-14; IMP-1)
  MIC: X (MIC of less than 1 μg/mL)
Strain KP1175 Klebsiella pneumoniae (SHV-OSBL(2b); VIM-1)
  MIC: X (MIC of less than 1 μg/mL)
Strain KP1177 Klebsiella pneumoniae (SHV-OSBL(2b), TEM-OSBL(2b); CTX-M-15; NDM-1)
  MIC: X (MIC of less than 1 μg/mL)
Strain KP1178 Klebsiella pneumoniae (SHV-OSBL(2b;) TEM-OSBL(2b); CTX-M-15; NDM-1)
  MIC: X (MIC of less than 1 μg/mL)
Strain KP1179 Klebsiella pneumoniae (SHV-12(2be), TEM-OSBL(2b); CTX-M-15; NDM-7)
  MIC: X (MIC of less than 1 μg/mL)
Strain KP1180 Klebsiella pneumoniae (SHV-OSBL(2b), TEM-OSBL(2b); CTX-M-15; DHA-1; IMP-26)
  MIC: X (MIC of less than 1 μg/mL)
Strain KP1181 Klebsiella pneumoniae (SHV-OSBL(2b); CTX-M-15; IMP-26)
  MIC: X (MIC of less than 1 μg/mL)
Strain KP1183 Klebsiella pneumoniae (SHV-OSBL(2b), TEM-OSBL(2b); CTX-M-15; NDM-1)
  MIC: X (MIC of less than 1 μg/mL)
Strain KP1184 Klebsiella pneumoniae (SHV-OSBL(2b); IMP-1)
  MIC: X (MIC of less than 1 μg/mL)
Strain KP1185 Klebsiella pneumoniae (SHV-OSBL(2b), TEM-OSBL(2b); IMP-4)
  MIC: Y (MIC of 1 μg/mL to 10 μg/mL)
Strain KP1186 Klebsiella pneumoniae (CTX-M-15; NDM-1)
  MIC: Y (MIC of 1 μg/mL to 10 μg/mL)
Strain KP1187 Klebsiella pneumoniae (SHV-55(2be), TEM-OSBL(2b); CTX-M-15; NDM-1)
  MIC: X (MIC of less than 1 μg/mL)
Strain KP1188 Klebsiella pneumoniae (SHV-OSBL(2b); CTX-M-15; NDM-1)
  MIC: Y (MIC of 1 μg/mL to 10 μg/mL)
Strain KP1189 Klebsiella pneumoniae (TEM-OSBL(2b); CTX-M-15; CTX-M-27; NDM-1)
  MIC: X (MIC of less than 1 μg/mL)
Strain KPM1123 Klebsiella pneumoniae (KPC-2 TEM SHV)
  MIC: X (MIC of less than 1 μg/mL)
Strain KPM1202 Klebsiella pneumoniae (KPC SHV TEM)
  MIC: X (MIC of less than 1 μg/mL)
Strain KPM1203 Klebsiella pneumoniae (KPC SHV TEM)
  MIC: X (MIC of less than 1 μg/mL)
Strain KPM1344 Klebsiella pneumoniae (VIM-1)
  MIC: X (MIC of less than 1 μg/mL)
Strain KPM1345 Klebsiella pneumoniae (VIM-1 SHV)
  MIC: X (MIC of less than 1 μg/mL)
Strain KPM1347 Klebsiella pneumoniae (NDM-1 SHV CTX-M-15)
  MIC: X (MIC of less than 1 μg/mL)
Strain KX1017 Klebsiella oxytoca (KPC-2, OXA-2, SHV-30)
  MIC: X (MIC of less than 1 μg/mL)
Strain KX1018 Klebsiella oxytoca (KPC-2, SHV-40, OXY-1)
  MIC: X (MIC of less than 1 μg/mL)
Strain KX1019 Klebsiella oxytoca (KPC-2, OXA-2)
  MIC: X (MIC of less than 1 μg/mL)
Strain PM1024 Proteus mirabilis (TEM-1(2b); CMY-16; VIM-1)
  MIC: X (MIC of less than 1 μg/mL)
Strain PM1026 Proteus mirabilis (DHA-1; IMP-26)
  MIC: X (MIC of less than 1 μg/mL)
Strain PM1027 Proteus mirabilis (VIM-5)
  MIC: X (MIC of less than 1 μg/mL)
Strain SM1023 Serratia marcescens (VIM-4)
  MIC: Y (MIC of 1 μg/mL to 10 μg/mL)
